Source: US6613956B1, “PI 3-kinase fusion mutants and uses thereof” (Chiron Corporation, priority 1996, dated 2003)

Assays:
[1] = target: T1, Akt (Mus musculus, UniProt P31750); test: In vitro protein kinase assay of immobilized Akt preincubated with phospholipid vesicles, histone H2B as substrate; assay type: biochemical; details: for increases Akt activity: summary statement for the three PI 3-kinase products; for stimulation of Akt: p110*-generated PI3,4P2 in PC vesicles, relative to unstimulated Akt
T1 construct: made in house; host or cells: COS-7 cells (transient transfection, anti-HA 12CA5 immunoprecipitation on Protein A-Sepharose)
T1 sequence (P31750 whole entry): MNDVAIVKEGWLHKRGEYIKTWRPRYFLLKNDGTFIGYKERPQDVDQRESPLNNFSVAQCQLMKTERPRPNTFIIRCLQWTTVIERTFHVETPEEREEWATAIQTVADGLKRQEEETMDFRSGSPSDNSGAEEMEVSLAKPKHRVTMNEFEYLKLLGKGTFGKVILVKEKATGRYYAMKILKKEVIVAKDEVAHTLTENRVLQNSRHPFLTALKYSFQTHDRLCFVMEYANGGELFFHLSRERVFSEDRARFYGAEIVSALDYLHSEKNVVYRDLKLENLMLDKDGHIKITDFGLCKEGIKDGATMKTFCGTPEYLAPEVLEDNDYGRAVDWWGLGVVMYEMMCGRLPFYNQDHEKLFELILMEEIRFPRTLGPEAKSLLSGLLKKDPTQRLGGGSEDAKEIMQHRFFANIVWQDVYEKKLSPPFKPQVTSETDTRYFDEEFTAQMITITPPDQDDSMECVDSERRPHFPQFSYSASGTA

[2] = target: T2, Akt RC25 (Homo sapiens, UniProt P31749, R25C); test: In vitro kinase assay of PH domain point mutant Akt RC25 with PI3,4P2 vesicles; assay type: biochemical; details: vesicles generated with p110*
T2 construct: made in house; host or cells: COS-7 cells (transient transfection, anti-HA 12CA5 immunoprecipitation on Protein A-Sepharose)
T2 sequence (P31749 whole entry R25C, the tested form may be a part): as the sequence (P31750 whole entry) above, with N2S, R25C, S50A, A100T, R112K, T117E, T389K, N410G, D415H counted along it
From the text: We determined that the PH domain at the Akt N-terminus is essential for PI3,4P2 mediated stimulation. It has previously been reported that the stimulation of the kinase activity of Akt by PI 3-kinase in vivo is dependent on the PH domain at its immediate N-terminus. We determined that PI3,4P2 mediates its stimulatory effect on Akt through its PH domain by introducing a point mutation in the PH domain of Akt (Akt RC25) which abrogates PI 3-kinase-mediated Akt activation in vivo. A kinase-deficient Akt, Akt KA179, was tested as an additional control. We incubated Akt, Akt RC25 and Akt KA179 proteins with PI3,4P2 in phospholipid vesicles using p110* as described above. […] The kinase-deficient Akt KA179 had no detectable enzymatic activity.
The assay for the in vitro protein kinase activity of Akt was conducted with immobilized Akt that was preincubated with or without mixed phospholipid vesicles (20 μl) for 10 min and subjected to an in vitro protein kinase assay using histone H2B (Boehringer Mannheim) as a substrate. […] The reactions were stopped by the addition of 8 μl Lammli-sample buffer and 22 μi of each reaction mixture were analyzed by 16% SDS-PAGE. The relative amounts of incorporated radioactivity were visualized by autoradiography and quantitated using a Molecular Imager System (BioRad).

| Substance | increases Akt activity [1] | stimulation of Akt kinase activity ([1]; vesicles containing synthetic PI3P, any conditions) | Akt activation ([1]; PE/PS vesicles) | stimulation of Akt ([1]; 4 μM) | stimulation of Akt ([1]; average) | Akt activation ([1]; presence of PS in the PI3,4P2/PC vesicles) | Akt activation ([1]; synthetic PI3,4P2 in either PE or PS vesicles) | further increase in Akt activation ([1]; synthetic dipalmitoyl derivatives of PI3,4P2, 260 nM to 1.3 μM) | increase in kinase activity of Akt ([1]; synthetic dipalmitoylated PI3,4P2 in PC vesicles) | activation of Akt by PI3,4P2 containing vesicles ([1]; wild-type Akt, vesicles generated with p110*) | activation of Akt RC25 by PI3,4P2 containing vesicles [2] |
| --- | --- | --- | --- | --- | --- | --- | --- | --- | --- | --- | --- |
| PI 3-phosphate [PI3P] | not | No stimulation |  |  |  |  |  |  |  |  |  |
| phosphatidylinositol 3,4 bisphosphate [PI3,4P2] | increases Akt activity |  | did not allow activation of Akt | 9 fold | 3 fold | interfered with Akt activation | No activation | No further increase | approximately 2.5 fold | efficiently activated | not activated |
